Data published in patent publication US10287288B2, “Factor XIa macrocyclic inhibitors bearing alkyl or cycloalkyl P2' moieties” (BRISTOL-MYERS SQUIBB COMPANY, priority 2015, dated 2019).
Read-outs that look alike come from different tables or passages of the source.

Columns and labels:
[1] = rcm bond
[2] = target: T1, purified human Factor XIa (Homo sapiens, UniProt P03951); experiment: Factor XIa inhibition assay (chromogenic substrate hydrolysis, Ki); format: biochemical; conditions: substrate S-2366, pH 7.4
T1 construct: purchased Haematologic Technologies

[3] = target: T2, purified human plasma kallikrein (Homo sapiens, UniProt P03952); experiment: Plasma kallikrein inhibition assay (chromogenic substrate hydrolysis, Ki); format: biochemical; conditions: substrate S-2302, pH 7.5
T2 construct: Plasma prekallikrein is a zymogen of a trypsin-like serine protease; purchased Enzyme Research Laboratories
T2 sequence (P03952 391-638 limits assumed): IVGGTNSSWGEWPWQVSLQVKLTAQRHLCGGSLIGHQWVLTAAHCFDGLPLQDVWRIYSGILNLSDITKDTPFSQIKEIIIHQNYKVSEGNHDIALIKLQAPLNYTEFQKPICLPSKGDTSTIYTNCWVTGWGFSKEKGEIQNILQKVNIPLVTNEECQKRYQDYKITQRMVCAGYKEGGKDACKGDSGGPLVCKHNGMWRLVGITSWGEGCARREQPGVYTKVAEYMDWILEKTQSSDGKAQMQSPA
T2 sequence (P03952 20-390 partner limits assumed): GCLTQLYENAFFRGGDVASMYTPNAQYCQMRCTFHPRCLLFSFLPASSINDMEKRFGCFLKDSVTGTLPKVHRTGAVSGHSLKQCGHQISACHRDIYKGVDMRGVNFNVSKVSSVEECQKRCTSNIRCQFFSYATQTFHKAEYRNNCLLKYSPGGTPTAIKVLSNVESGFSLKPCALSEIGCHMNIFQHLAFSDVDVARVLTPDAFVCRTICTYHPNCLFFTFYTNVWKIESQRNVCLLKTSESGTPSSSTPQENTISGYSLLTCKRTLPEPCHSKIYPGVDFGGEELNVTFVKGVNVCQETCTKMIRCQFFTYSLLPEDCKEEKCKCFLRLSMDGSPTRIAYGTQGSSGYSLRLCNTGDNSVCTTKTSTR

T1 sequence (P03951 388-625 limits assumed): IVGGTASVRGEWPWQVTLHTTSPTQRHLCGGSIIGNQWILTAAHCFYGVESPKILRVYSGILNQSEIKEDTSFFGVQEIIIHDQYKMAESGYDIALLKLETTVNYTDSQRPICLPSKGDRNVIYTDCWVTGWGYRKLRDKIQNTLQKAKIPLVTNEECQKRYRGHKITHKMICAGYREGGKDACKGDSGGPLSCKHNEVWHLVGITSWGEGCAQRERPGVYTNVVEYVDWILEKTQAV
T1 sequence (P03951 19-387 partner limits assumed): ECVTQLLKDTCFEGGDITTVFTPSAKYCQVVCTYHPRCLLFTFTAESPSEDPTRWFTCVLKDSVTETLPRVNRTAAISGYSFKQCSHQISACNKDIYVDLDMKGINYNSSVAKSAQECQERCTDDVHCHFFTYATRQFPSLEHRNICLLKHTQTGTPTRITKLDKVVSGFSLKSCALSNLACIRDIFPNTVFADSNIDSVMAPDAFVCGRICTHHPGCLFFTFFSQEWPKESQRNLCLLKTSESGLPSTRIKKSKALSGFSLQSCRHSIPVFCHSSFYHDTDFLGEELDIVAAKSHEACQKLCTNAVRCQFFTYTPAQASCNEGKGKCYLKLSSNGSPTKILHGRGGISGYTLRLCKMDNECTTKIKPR

| Structure (SMILES) | Ki [2] [nM] | Ki [3] [nM] | other results |
| --- | --- | --- | --- |
| CC(C)(C)OC(=O)N[C@H]1CC=CCCNC(=O)[C@@H]2C[C@@H]2c2ccnc1c2 |  |  | ring closure, isolated yield ([1]; from C=CCCNC(=O)[C@@H]1C[C@@H]1c1ccnc([C@H](CC=C)NC(=O)OC(C)(C)C)c1, 13-membered ring, Grubbs II (0.2 eq)/pTsOH, DCM, 4.7 mM, 40.0 °C, 2.0 h): 65% |
| COC(=O)[C@H]1Cc2cccc(c2)[C@@H](NC(=O)OCc2ccccc2)C/C=C/[C@@H](C)C(=O)N1 |  |  | ring closure, isolated yield ([1]; from C=CC[C@H](NC(=O)OCc1ccccc1)c1cccc(C[C@@H](NC(=O)[C@H](C)C=C)C(=O)OC)c1, 12-membered ring, Grubbs II (0.2 eq), microwave 45 min, DCE, 9.8 mM, 120.0 °C, 0.75 h): 53.2% |
| C[C@@H]1/C=C/C[C@H](NC(=O)OC(C)(C)C)c2cc(ccn2)C(C)(C)CNC1=O |  |  | ring closure, isolated yield ([1]; from C=CC[C@H](NC(=O)OC(C)(C)C)c1cc(C(C)(C)CNC(=O)[C@H](C)C=C)ccn1, 12-membered ring, Grubbs II (0.4 eq), microwave 30 min, DCE, 49.8 mM, 120.0 °C, 0.5 h): 43% |
| C[C@@H]1/C=C/C[C@H](NC(=O)OCc2ccccc2)c2cccc(c2)C[C@H](CC#N)NC1=O |  |  | ring closure, isolated yield ([1]; from C=CC[C@H](NC(=O)OCc1ccccc1)c1cccc(C[C@H](CC#N)NC(=O)[C@H](C)C=C)c1, 12-membered ring, Grubbs II (0.2 eq), microwave 30 min, DCE, 8.5 mM, 120.0 °C, 0.5 h): 56.2% |
| CC(=O)N1CCCC2NC(=O)[C@H](C)CCC[C@H](n3cnc(-c4c(-n5cc(Cl)nn5)ccc(Cl)c4F)cc3=O)c3cccc(c3)C21 (single isomer, unassigned) [Example 25] | 1420 |  |  |
| CC(=O)N1CCCC2NC(=O)[C@H](C)CCC[C@H](n3cnc(-c4c(-n5cc(Cl)nn5)ccc(Cl)c4F)cc3=O)c3cccc(c3)C21 (single isomer, unassigned) [Example 26] | 120 | 6970 |  |
| C[C@@H]1CCC[C@H](n2cnc(-c3cc(Cl)ccc3-n3cc(C(F)(F)F)nn3)cc2=O)c2cccc(c2)C2C(CCCN2C)NC1=O (single isomer, unassigned) [Example 27] | < 5 | 409 |  |
| C[C@@H]1CCC[C@H](n2cnc(-c3cc(Cl)ccc3-n3cc(C(F)(F)F)nn3)cc2=O)c2cccc(c2)C2C(CCCN2C)NC1=O (single isomer, unassigned) [Example 28] | 1130 | 11200 |  |
| COC(=O)[C@H]1Cc2cccc(c2)[C@@H](n2cnc(-c3cc(Cl)ccc3-n3cc(Cl)nn3)cc2=O)CCC[C@@H](C)C(=O)N1 [Example 1, methyl (3R,6R,10S)-10-{4-[5-chloro-2-(4-chloro-1H-1,2,3-triazol-1-yl)phenyl]-6-oxo-1,6-dihydropyrimidin-1-yl}-6-methyl-5-oxo-4-azabicyclo[9.3.1]pentadeca-1(15),11,13-triene-3-carboxylate] | 53 |  |  |
| C[C@@H]1CCC[C@H](n2cnc(-c3cc(Cl)ccc3-n3cc(C(F)(F)F)nn3)cc2=O)c2cccc(c2)C[C@H](CO)NC1=O [Example 2, (3R,6R,10S)-10-(4-{5-chloro-2-[4-(trifluoromethyl)-1H-1,2,3-triazol-1-yl]phenyl}-6-oxo-1,6-dihydropyrimidin-1-yl)-3-(hydroxymethyl)-6-methyl-4-azabicyclo[9.3.1]pentadeca-1(15),11,13-trien-5-one] | 445 |  |  |
| CNC(=O)OC[C@H]1Cc2cccc(c2)[C@@H](n2cnc(-c3cc(Cl)ccc3-n3cc(C(F)(F)F)nn3)cc2=O)CCC[C@@H](C)C(=O)N1 [Example 3, [(3R,6R,10S)-10-(4-{5-chloro-2-[4-(trifluoromethyl)-1H-1,2,3-triazol-1-yl]phenyl}-6-oxo-1,6-dihydropyrimidin-1-yl)-6-methyl-5-oxo-4-azabicyclo[9.3.1]pentadeca-1(15),11,13-trien-3-yl]methyl N-methylcarbamate] | 109 |  |  |
| COC(=O)NCC[C@H]1Cc2cccc(c2)[C@@H](n2cnc(-c3cc(Cl)ccc3-n3cc(C(F)(F)F)nn3)cc2=O)CCC[C@@H](C)C(=O)N1 [Example 4, methyl N-{2-[(3R,6R,10S)-10-(4-{5-chloro-2-[4-(trifluoromethyl)-1H-1,2,3-triazol-1-yl]phenyl}-6-oxo-1,6-dihydropyrimidin-1-yl)-6-methyl-5-oxo-4-azabicyclo[9.3.1]pentadeca-1(15),11,13-trien-3-yl]ethyl}carbamate] | 130 | 8270 |  |
| C[C@@H]1CCC[C@H](n2cnc(-c3cc(Cl)ccc3-n3cc(C(F)(F)F)nn3)cc2=O)c2cccc(c2)C[C@H](CC#N)NC1=O [Example 5, 2-[(3R,6R,10S)-10-(4-{5-chloro-2-[4-(trifluoromethyl)-1H-1,2,3-triazol-1-yl]phenyl}-6-oxo-1,6-dihydropyrimidin-1-yl)-6-methyl-5-oxo-4-azabicyclo[9.3.1]pentadeca-1(15),11,13-trien-3-yl]acetonitrile] | 284 | 4210 |  |
| Cc1c(C(=O)N[C@H]2CCC[C@@H](C)C(=O)N[C@@H](CC#N)Cc3cccc2c3)ncn1-c1cccc(Cl)c1F [Example 6, 1-(3-chloro-2-fluorophenyl)-N-[(3R,6R,10S)-3-(cyanomethyl)-6-methyl-5-oxo-4-azabicyclo[9.3.1]pentadeca-1(15),11,13-trien-10-yl]-5-methyl-1H-imidazole-4-carboxamide] | 986 | 6200 |  |
| COC(=O)NCC[C@@H]1Cc2cccc(c2)[C@@H](n2cnc(-c3cc(Cl)ccc3-n3cc(C(F)(F)F)nn3)cc2=O)CCC[C@@H](C)C(=O)N1 [Example 8, methyl N-{2-[(3S,6R,10S)-10-(4-{5-chloro-2-[4-(trifluoromethyl)-1H-1,2,3-triazol-1-yl]phenyl}-6-oxo-1,6-dihydropyrimidin-1-yl)-6-methyl-5-oxo-4-azabicyclo[9.3.1]pentadeca-1(15),11,13-trien-3-yl]ethyl}carbamate] | ≤ 5 | 1790 |  |
| C[C@@H]1CCC[C@H](n2cnc(-c3cc(Cl)ccc3-n3cc(C(F)(F)F)nn3)cc2=O)c2cccc(c2)C[C@@H](CC#N)NC1=O [Example 9, 2-[(3S,6R,10S)-10-(4-{5-chloro-2-[4-(trifluoromethyl)-1H-1,2,3-triazol-1-yl]phenyl}-6-oxo-1,6-dihydropyrimidin-1-yl)-6-methyl-5-oxo-4-azabicyclo[9.3.1]pentadeca-1(15),11,13-trien-3-yl]acetonitrile] | 5 | 1290 |  |
| O=C1NCCCCC[C@H](n2cnc(-c3cc(Cl)ccc3-n3cc(Cl)nn3)cc2=O)c2cc(ccn2)[C@H]2C[C@@H]12 [Example 31, (2S,4R,12S)-12-{4-[5-Chloro-2-(4-chloro-1H-1,2,3-triazol-1-yl)phenyl]-6-oxo-1,6-dihydropyrimidin-1-yl}-6,14-diazatricyclo[11.3.1.0^2,^4]heptadeca-1(17),13,15-trien-5-one] | 12.7 | 81.4 |  |
| O=C1CCCc2ccnc(c2)[C@@H](n2cnc(-c3cc(Cl)ccc3-n3cc(Cl)nn3)cc2=O)CCCCCN1 [Example 32, (12S)-12-{4-[5-Chloro-2-(4-chloro-1H-1,2,3-triazol-1-yl)phenyl]-6-oxo-1,6-dihydropyrimidin-1-yl}-6,14-diazabicyclo[11.3.1]heptadeca-1(17),13,15-trien-5-one] | 27.8 | 1890 |  |
| O=C1NCC/C=C/C[C@H](n2cnc(-c3cc(Cl)ccc3-n3cc(Cl)nn3)cc2=O)c2cc(ccn2)[C@H]2C[C@@H]12 [Example 33, (2S,4R,9E,12S)-12-{4-[5-Chloro-2-(4-chloro-1H-1,2,3-triazol-1-yl)phenyl]-6-oxo-1,6-dihydropyrimidin-1-yl}-6,14-diazatricyclo[11.3.1.0^2,^4]heptadeca-1(17),9,13,15-tetraen-5-one] | 355 | 3610 |  |
| O=C1NCCCCC[C@H](n2cnc(-c3cc(Cl)ccc3-n3cc(Cl)nn3)cc2=O)c2cc(ccn2)[C@@H]2C[C@H]12 [Example 34, (2R,4S,12S)-12-{4-[5-Chloro-2-(4-chloro-1H-1,2,3-triazol-1-yl)phenyl]-6-oxo-1,6-dihydropyrimidin-1-yl}-6,14-diazatricyclo[11.3.1.0^2,^4]heptadeca-1(17),13,15-trien-5-one] | 96 | 3100 |  |
